As a reminder, the pIC50 is −log10 of the IC50, conventionally taken in molar units.

pIC50: −log10 of the molar value.

In assay [1] the target is T1, Human recombinant renin (Homo sapiens, UniProt P00797).
T1 construct: purchased Proteos
T1 sequence (P00797 67-406): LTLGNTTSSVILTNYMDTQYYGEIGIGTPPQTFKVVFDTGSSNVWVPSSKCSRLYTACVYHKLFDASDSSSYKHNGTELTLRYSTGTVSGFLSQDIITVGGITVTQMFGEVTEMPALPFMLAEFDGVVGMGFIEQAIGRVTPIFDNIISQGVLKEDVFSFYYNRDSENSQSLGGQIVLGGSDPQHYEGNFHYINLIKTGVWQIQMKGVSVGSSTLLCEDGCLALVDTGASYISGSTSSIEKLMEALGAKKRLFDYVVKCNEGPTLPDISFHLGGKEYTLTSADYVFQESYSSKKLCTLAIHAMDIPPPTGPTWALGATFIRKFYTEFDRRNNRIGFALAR
Briefly: Inhibition of human recombinant renin (QFRET, buffer). The following applies: buffer: 50 mM MOPS pH 7.4, 100 mM NaCl, 0.002% Tween 20; 37° C., 3 hours. The assay is classed as biochemical. An outline of the steps:
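Renin at […] final in 50 mM MOPS pH 7.4, 100 mM NaCl, 0.002% Tween 20, with compounds diluted 50-fold from DMSO and 6 μM internally quenched DNP peptide substrate. Incubation 3 h at 37 °C; fluorescence (ex 328/em 388 nm) at 3 h minus t=0 background; IC50 derived.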

Assay [2] concerns the target T2, recombinant renin in human plasma (Homo sapiens, UniProt P00797).
T2 construct: purchased Proteos
T2 sequence (P00797 67-406): T1 sequence (P00797 67-406)
Briefly: Inhibition of renin in human plasma (QFRET, plasma). The following applies: human EDTA plasma with 1 nM recombinant renin added; 37° C., 1 hour. The assay is classed as biochemical. An outline of the steps:
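Cleared human EDTA plasma spiked with 1 nM recombinant renin. Compounds preincubated with the plasma for 10 min at 37 °C, then 6 µM internally quenched FAM peptide added (final 342 mM Tris pH 7.2, 23 mM EDTA) and incubated for 1 h at 37 °C. Fluorescence (490/520 nm) at 1 h minus t=0 gave IC50.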

For `CC(=O)NCCc1ccccc1-c1onc([C@H]2CN[C@@H](C)C[C@@H]2c2ccc(F)c(F)c2)c1Br` [Structure 96], the pIC50 in assay [1] is 9.15; in assay [2], 8.55.

Values taken from patent publication US20120035214A1, “RENIN INHIBITORS” (Merck Canada Inc., priority 2009, published 2012).
